Data as given in patent publication US20220220128A1, “HETEROCYCLIC COMPOUNDS AS KINASE INHIBITORS, COMPOSITIONS COMPRISING THE HETEROCYCLIC COMPOUND, AND METHODS OF USE THEREOF” (JS Innopharm (Shanghai) Ltd, priority 2019, published 2022).

Assays:
human RET kinase = biological target: T1, human RET kinase (Homo sapiens, UniProt P07949); assay: RET Kinase Assay (LanthaScreen TR-FRET enzymatic assay); assay type: biochemical; settings: 7 nM RET, 23 μM ATP
T1 construct: purchased Carna 08-159
Method in brief: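 Human RET (7 nM) preincubated 15 min with compound in 50 mM HEPES pH 7.5, 0.0015% Brij-35, then reacted with 3 μM FAM-P2 peptide and 23 μM ATP for 1 h at 28° C.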

BAF3-KIF5B-RET cells = biological target: T2, BAF3-KIF5B-RET cells (Homo sapiens, UniProt P07949); assay: BAF3-KIF5B-RET Cell proliferation assay (CellTiter-Glo, 72 hours); assay type: cell-based; settings: growth inhibition, read-out: BA/F3-KIF5B-RET Cellular activity
T2 construct: fused on or other part: P33176 (Kinesin-1 heavy chain)
T2 sequence (P07949 whole entry, change not shown, the tested form may be a part): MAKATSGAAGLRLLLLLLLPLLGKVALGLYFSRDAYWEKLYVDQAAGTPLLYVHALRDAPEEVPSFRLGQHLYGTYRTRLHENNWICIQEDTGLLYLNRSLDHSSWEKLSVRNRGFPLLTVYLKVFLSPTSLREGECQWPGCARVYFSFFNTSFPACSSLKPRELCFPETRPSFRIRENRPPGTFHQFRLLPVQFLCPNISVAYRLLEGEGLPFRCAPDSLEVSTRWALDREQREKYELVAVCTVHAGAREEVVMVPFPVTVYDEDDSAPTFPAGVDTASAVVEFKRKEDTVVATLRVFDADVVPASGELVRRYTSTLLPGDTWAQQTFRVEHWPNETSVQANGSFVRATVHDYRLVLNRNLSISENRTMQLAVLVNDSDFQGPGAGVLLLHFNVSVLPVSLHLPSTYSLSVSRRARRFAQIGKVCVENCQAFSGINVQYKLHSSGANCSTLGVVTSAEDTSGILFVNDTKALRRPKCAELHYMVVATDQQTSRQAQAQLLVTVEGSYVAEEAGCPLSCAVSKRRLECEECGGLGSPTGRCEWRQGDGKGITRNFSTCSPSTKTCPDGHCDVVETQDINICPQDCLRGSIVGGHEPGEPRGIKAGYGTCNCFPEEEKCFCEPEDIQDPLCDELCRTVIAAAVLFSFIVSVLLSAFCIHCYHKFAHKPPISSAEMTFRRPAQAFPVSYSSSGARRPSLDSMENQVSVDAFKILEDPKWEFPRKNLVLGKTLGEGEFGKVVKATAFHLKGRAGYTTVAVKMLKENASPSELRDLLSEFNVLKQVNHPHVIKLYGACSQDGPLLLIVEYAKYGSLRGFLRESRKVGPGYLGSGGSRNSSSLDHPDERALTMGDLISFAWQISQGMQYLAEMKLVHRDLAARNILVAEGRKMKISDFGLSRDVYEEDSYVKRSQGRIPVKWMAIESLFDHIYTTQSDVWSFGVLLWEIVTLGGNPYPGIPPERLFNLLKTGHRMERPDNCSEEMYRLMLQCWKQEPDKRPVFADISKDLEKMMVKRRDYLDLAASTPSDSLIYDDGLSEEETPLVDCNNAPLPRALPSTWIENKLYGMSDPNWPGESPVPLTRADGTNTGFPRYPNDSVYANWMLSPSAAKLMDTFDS
Method in brief: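 Cells seeded at 2,000/well in RPMI-1640 with 10% FBS and left 24 h at 37 °C, then exposed 72 h to nine compound levels (final 1 μM down to 0.00015 μM, 0.1% DMSO). CellTiter-Glo luminescence gave viability versus DMSO wells, from which IC50 was fitted.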

T1 sequence (P07949 29-1114): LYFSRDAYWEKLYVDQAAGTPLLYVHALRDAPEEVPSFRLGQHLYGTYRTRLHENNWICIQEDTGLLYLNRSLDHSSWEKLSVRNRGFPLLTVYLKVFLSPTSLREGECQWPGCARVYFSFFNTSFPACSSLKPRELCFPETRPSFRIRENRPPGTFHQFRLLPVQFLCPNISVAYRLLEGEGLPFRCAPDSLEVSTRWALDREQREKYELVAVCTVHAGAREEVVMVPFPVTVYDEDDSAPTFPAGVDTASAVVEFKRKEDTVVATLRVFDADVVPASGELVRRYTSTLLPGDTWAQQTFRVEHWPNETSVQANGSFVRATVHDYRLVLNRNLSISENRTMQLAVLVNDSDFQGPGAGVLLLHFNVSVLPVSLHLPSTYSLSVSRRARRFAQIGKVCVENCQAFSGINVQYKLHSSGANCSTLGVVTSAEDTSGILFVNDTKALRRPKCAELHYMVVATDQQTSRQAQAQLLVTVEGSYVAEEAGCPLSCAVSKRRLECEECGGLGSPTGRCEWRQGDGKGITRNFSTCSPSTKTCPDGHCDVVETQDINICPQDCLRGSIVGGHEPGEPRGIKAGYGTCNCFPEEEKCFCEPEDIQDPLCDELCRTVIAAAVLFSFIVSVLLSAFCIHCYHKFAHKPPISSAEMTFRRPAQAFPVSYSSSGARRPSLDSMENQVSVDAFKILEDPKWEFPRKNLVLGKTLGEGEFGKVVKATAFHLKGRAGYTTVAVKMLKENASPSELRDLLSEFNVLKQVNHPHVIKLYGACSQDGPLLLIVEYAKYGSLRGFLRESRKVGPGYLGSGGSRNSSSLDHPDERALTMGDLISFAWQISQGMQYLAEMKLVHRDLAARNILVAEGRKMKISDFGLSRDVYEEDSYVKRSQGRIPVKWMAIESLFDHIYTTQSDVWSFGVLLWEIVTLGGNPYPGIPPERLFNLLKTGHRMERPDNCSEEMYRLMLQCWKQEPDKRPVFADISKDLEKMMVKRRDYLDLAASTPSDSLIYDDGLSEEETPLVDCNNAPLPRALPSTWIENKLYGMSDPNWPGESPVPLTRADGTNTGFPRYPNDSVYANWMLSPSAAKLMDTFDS

Row | Structure (SMILES) | IC50 (human RET kinase) [nM] | GI50 (BAF3-KIF5B-RET cells) [nM]
1 | CC(C)(O)COc1cc(-c2cnc(N3C[C@@H]4[C@@H](CNC(=O)c5c(F)cccc5Cl)[C@@H]4C3)cn2)c2c(C#N)cnn2c1 [Example 154, 2-chloro-N-(((1R,5S,6s)-3-(5-(3-cyano-6-(2-hydroxy-2-methylpropoxy)pyrazolo[1,5-a]pyridin-4-yl)pyrazin-2-yl)-3-azabicyclo[3.1.0]hexan-6-yl)methyl)-6-fluorobenzamide] | ≤ 10 | 10 to 50
2 | CCOc1cc(-c2ccc(N3C4CC5CC3CC(NC(=O)c3ccc(OC)nc3)(C5)C4)nc2)c2c(C#N)cnn2c1 [Example 139, N-((1R,3S,5s,7s)-2-(5-(3-cyano-6-ethoxypyrazolo[1,5-a]pyridin-4-yl)pyridin-2-yl)-2-azaadamantan-5-yl)-6-methoxynicotinamide] | ≤ 10 | 50 to 100
3 | Cn1cc(-c2cc(-c3cnc(N4C5CC6CC4CC(O)(C6)C5)cn3)c3c(C#N)cnn3c2)cn1 [Example 104, 4-(5-((1R,3S,5s,7s)-5-hydroxy-2-azaadamantan-2-yl)pyrazin-2-yl)-6-(1-methyl-1H-pyrazol-4-yl)pyrazolo[1,5-a]pyridine-3-carbonitrile] | ≤ 10 | 10 to 50
4 | COc1ccc(C(=O)NC23CC4CC(C2)N(c2ccc(-c5cc(-c6cnn(C)c6)cn6ncc(C#N)c56)cn2)C(C4)C3)cn1 [Example 188, N-((1R,3S,5s,7s)-2-(5-(3-cyano-6-(1-methyl-1H-pyrazol-4-yl)pyrazolo[1,5-a]pyridin-4-yl)pyridin-2-yl)-2-azaadainantan-5-yl)-6-methoxynicotinamide] | ≤ 10 | ≤ 10
5 | CC(=O)NC12CC3CC(C1)N(c1cnc(-c4cc(-c5cnn(C)c5)cn5ncc(C#N)c45)cn1)C(C3)C2 [Example 111, N-((1R,3S,5s,7s)-2-(5-(3-cyano-6-(1-methyl-1H-pyrazol-4-yl)pyrazolo[1,5-a]pyridin-4-yl)pyrazin-2-yl)-2-azaadamantan-5-yl)acetamide] | ≤ 10 | ≤ 10
6 | COc1cncc(C(=O)NC[C@@H]2[C@H]3CN(c4ccc(-c5cc(-c6cnn(C)c6)cn6ncc(C#N)c56)cn4)C[C@@H]23)c1 [Example 192, N-(((1R,5S,6s)-3-(5-(3-cyano-6-(1-methyl-1H-pyrazol-4-yl)pyrazolo[1,5-a]pyridin-4-yl)pyridin-2-yl)-3-azabicyclo[3.1.0]hexan-6-yl)methyl)-5-methoxynicotinainide] | ≤ 10 | 10 to 50
7 | CC(C)(O)COc1cc(-c2cnc(N3C4CC5CC3CC(NC=O)(C5)C4)cn2)c2c(C#N)cnn2c1 [Example 160, N-((1R,3S,5s,7s)-2-(5-(3-cyano-6-(2-hydroxy-2-methylpropoxy)pyrazolo[1,5-a]pyridin-4-yl)pyrazin-2-yl)-2-azaadamantan-5-yl)formamide] | 10 to 50 | > 100

More lines, now with the values ahead:

Row | IC50 (human RET kinase) [nM] | GI50 (BAF3-KIF5B-RET cells) [nM] | Structure (SMILES)
8 | 50 to 100 | > 100 | COc1ccc(CC(=O)N[C@H]2[C@@H]3CN(c4ccc(-c5cc(OCC(C)(C)O)cn6ncc(C#N)c56)cn4)C[C@@H]32)cn1 [Example 190, N-((1R,5S,6s)-3-(5-(3-cyano-6-(2-hydroxy-2-methylpropoxy)pyrazolo[1,5-a]pyridin-4-yl)pyridin-2-yl)-3-azabicyclo[3.1.0]hexan-6-yl)-2-(6-methoxypyridin-3-yl)acetamide]
9 | ≤ 10 | ≤ 10 | COc1ccc(C(=O)NC23CC4CC(C2)N(c2cnc(-c5cc(-c6cnn(C)c6)cn6ncc(C#N)c56)cn2)C(C4)C3)cn1 [Example 165, N-((1R,3S,5s,7s)-2-(5-(3-cyano-6-(1-methyl-1H-pyrazol-4-yl)pyrazolo[1,5-a]pyridin-4-yl)pyrazin-2-yl)-2-azaadamantan-5-yl)-6-methoxynicotinamide]
10 | ≤ 10 | 10 to 50 | COc1ccc(CN2[C@@H]3CC[C@H]2[C@H]2CN(c4ccc(-c5cc(-c6cnn(C)c6)cn6ncc(C#N)c56)cn4)C[C@H]23)cn1 [Example 118, 4-(6-((3aR,4S,7R,7aS)-8-((6-methoxypyridin-3-yl)methyl)hexahydro-1H-4,7-epiminoisoindol-2(3H)-yl)pyridin-3-yl)-6-(1-methyl-1H-pyrazol-4-yl)pyrazolo[1,5-a]pyridine-3-carbonitrile]
11 | ≤ 10 | 10 to 50 | COc1ccc(NC(=O)C23CC4CC(C2)N(c2ccc(-c5cc(OCC(C)(C)O)cn6ncc(C#N)c56)cn2)C(C4)C3)cn1 [Example 133, (1R,3S,5s,7s)-2-(5-(3-cyano-6-(2-hydroxy-2-methylpropoxy)pyrazolo[1,5-a]pyridin-4-yl)pyridin-2-yl)-N-(6-methoxypyridin-3-yl)-2-azaadamantane-5-carboxamide]
12 | ≤ 10 | ≤ 10 | COc1ccc(NC(=O)[C@]2(C)C[C@H]3CN(c4ccc(-c5cc(-c6ccn(C)n6)cn6ncc(C#N)c56)cn4)C[C@H]3C2)cn1 [Example 113, (3aR,5s,6aS)-2-(5-(3-cyano-6-(1-methyl-1H-pyrazol-3-yl)pyrazolo[1,5-a]pyridin-4-yl)pyridin-2-yl)-N-(6-methoxypyridin-3-yl)-5-methyloctahydrocyclopenta[c]pyrrole-5-carboxamide]
13 | 50 to 100 | > 100 | COc1ccc(C(=O)NC[C@@H]2[C@H]3CN(c4cnc(-c5cc(OCC(C)(C)O)cn6ncc(C#N)c56)cn4)C[C@@H]23)cn1 [Example 155, N-(((1R,5S,6s)-3-(5-(3-cyano-6-(2-hydroxy-2-methylpropoxy)pyrazolo[1,5-a]pyridin-4-yl)pyrazin-2-yl)-3-azabicyclo[3.1.0]hexan-6-yl)methyl)-6-methoxynicotinamide]
14 | ≤ 10 | 10 to 50 | Cn1cc(-c2cc(-c3cnc(N4C5CC6CC4CC(NC=O)(C6)C5)cn3)c3c(C#N)cnn3c2)cn1 [Example 107, N-((1R,3S,5s,7s)-2-(5-(3-cyano-6-(1-methyl-1H-pyrazol-4-yl)pyrazolo[1,5-a]pyridin-4-yl)pyrazin-2-yl)-2-azaadamantan-5-yl)formamide]
15 | 10 to 50 | > 100 | COc1ccc(NC(=O)[C@@]2(C)C[C@H]3CN(c4ccc(-c5cc(OCC(C)(C)O)cn6ncc(C#N)c56)cn4)C[C@H]3C2)cn1 [Example 116, (3aR,5r,6aS)-2-(5-(3-cyano-6-(2-hydroxy-2-methylpropoxy)pyrazolo[1,5-a]pyridin-4-yl)pyridin-2-yl)-N-(6-methoxypyridin-3-yl)-5-methyloctahydrocyclopenta[c]pyrrole-5-carboxamide]
16 | ≤ 10 | ≤ 10 | Cn1cc(-c2cc(-c3ccc(N4C[C@@H]5C[C@](C)(NC(=O)c6ncccc6Cl)C[C@@H]5C4)nc3)c3c(C#N)cnn3c2)cn1 [Example 173, 3-chloro-N-((3aR,5r,6aS)-2-(5-(3-cyano-6-(1-methyl-1H-pyrazol-4-yl)pyrazolo[1,5-a]pyridin-4-yl)pyridin-2-yl)-5-methyloctahydrocyclopenta[c]pyrrol-5-yl)picolinamide]
17 | ≤ 10 | ≤ 10 | COc1ccc(C(=O)N[C@]2(C)C[C@H]3CN(c4cnc(-c5cc(-c6cnn(C)c6)cn6ncc(C#N)c56)cn4)C[C@H]3C2)cn1 [Example 145, N-((3aR,5s,6aS)-2-(5-(3-cyano-6-(1-methyl-1H-pyrazol-4-yl)pyrazolo[1,5-a]pyridin-4-yl)pyrazin-2-yl)-5-methyloctahydrocyclopenta[c]pyrrol-5-yl)-6-methoxynicotinamide]
